Source: ChEMBL document CHEMBL1139107, “Design, synthesis, and biological evaluation of novel analogues of archazolid: a highly potent simplified V-ATPase inhibitor” (Bioorg Med Chem Lett, 2007)

Experiments:
L929 = assay: Growth inhibition of mouse L929 cells by MTT assay; format: functional, cell-based
[1] = Inhibition of tobacco hornworm midgut vacuolar ATPase V1/V0 holoenzyme; design: species or system Manduca sexta

Structure (SMILES)	IC50 (L929)	IC50 [1]
CNC(=O)O[C@@H](CC(C)C)c1nc([C@H]2OC(=O)/C(C)=C/C/C(C)=C/[C@@H](O[Si](C)(C)C(C)(C)C)[C@@H](C)\C=C(C)/C=C(C)\C=C\[C@@H](O)[C@H](C)[C@H](OC)/C(C)=C/C=C/[C@@H]2C)cs1	940 nM	
CNC(=O)O[C@@H](CC(C)C)c1nc([C@H]2OC(=O)/C(C)=C/C/C(C)=C/[C@@H](OC(=O)c3ccc([N+](=O)[O-])cc3)[C@@H](C)\C=C(C)/C=C(C)\C=C\[C@@H](O)[C@H](C)[C@H](OC)/C(C)=C/C=C/[C@@H]2C)cs1	290 nM	
CO[C@@H]1/C(C)=C/C=C/[C@H](C)[C@@H](c2csc([C@@H](O)CC(C)C)n2)OC(=O)/C(C)=C/C/C(C)=C/[C@@H](O)[C@@H](C)\C=C(C)/C=C(C)\C=C\[C@@H](O)[C@@H]1C	14 nM	
CNC(=O)O[C@@H](CC(C)C)c1nc([C@H]2OC(=O)/C(C)=C/C/C(C)=C/[C@@H](O)[C@@H](C)\C=C(C)/C=C(C)\C=C\[C@@H](O)[C@H](C)[C@H](OC)/C(C)=C/C=C/[C@@H]2C)cs1 [ARCHAZOLID A]	0.81 nM	0.6 nmol
CNC(=O)O[C@@H](CC(C)C)c1nc([C@H]2OC(=O)/C=C/C/C(C)=C/[C@@H](O)[C@@H](C)\C=C(C)/C=C(C)\C=C\[C@@H](O)[C@H](C)[C@H](OC)/C(C)=C/C=C/[C@@H]2C)cs1 [ARCHAZOLID B]	1.1 nM	
CNC(=O)O[C@@H](CC(C)C)c1nc([C@H]2OC(=O)/C(C)=C/C/C(C)=C/[C@@H](O)[C@@H](C)\C=C(C)/C=C(C)\C=C\C(=O)[C@H](C)[C@H](OC)/C(C)=C/C=C/[C@@H]2C)cs1 [DEHYDROARCHAZOLID]	> 5000 nM	
